Source: patent publication US20230241257A1, “BIOTIN-MODIFIED DIMER AND USE THEREOF” (THE UNIVERSITY OF TOKYO, priority 2020, published 2023)

What was measured:
[1] = tested on: human stomach cancer cells (MKN-45); test: Experiment 4: pharmacokinetics of ^211At-psyche-B in the absence of Cupid-scFv antibody in MKN-45 cancer-bearing mouse models; format: in vivo, mice (BALB/cSlc nu/nu); details: no Cupid-scFv antibody
Method: The present experiment used human stomach cancer cells (MKN-45) expressing carcinoembryonic antigen (CEA). 9-week-old male immunodeficient mice (BALB/cSlc nu/nu) were used. MKN-45 cells (1×10^7/0.1 ml) were transplanted into the mice's subcutis on the right shoulder dorsal side to produce cancer-bearing mouse models. The mice were divided into four groups when the tumor volume became a predetermined size (on Day 14 after the transplantation), and ^211At-psyche-B (about 0.25 MBq/[…]) was administered via the caudal vein of each mouse. One minute, 1 hour, 6 hours, and 24 hours after administration of the ^211At-psyche-B, the mice were euthanized by collecting whole blood from the heart of each mouse under isoflurane anesthesia, and tumor tissues and normal tissues/organs were then excised. Normal tissues/organs: skin (lower right limb), muscle (right gastrocnemius), heart, lung, spleen, pancreas, white fat (upper portion of right side testis), testis (both sides), stomach, stomach contents, small intestine (including contents), large intestine (including contents), liver, brown fat (interscapular), submandibular gland, thyroid gland (together with trachea), bone (right femur), brain, eyeball, bladder, and urine; the remaining residues were divided into three equal parts, and the three equal parts were defined to be residue-1, residue-2, and residue-3. After that, the weights of blood, plasma, urine, tumor, and normal tissues/organs were measured, and the radioactivity thereof was then measured using a γ counter. The amounts of the ^211At-psyche-B (radioactivity) accumulated in the blood, plasma, urine, tumor, and normal tissues/organs were calculated. That is to say, the rates (% ID/g) of the ^211At-psyche-B accumulated per unit weight (g) of the blood, plasma, urine, tumor, and normal tissues/organs, in the administered ^211At-psyche-B, were shown. Regarding accumulation of the ^211At-psyche-B in the thyroid gland, since the weight of the thyroid gland could not be precisely measured, it was shown that the rate (% ID) of the ^211At-psyche-B accumulated in the thyroid gland in the administered ^211At-psyche-B.

[2] = tested on: human stomach cancer cells (MKN-45); test: Experiment 9: pharmacokinetics (6 h) of Cupid-scFv antibody (24 h before)+^211At-psyche-BR in MKN-45 cancer-bearing mouse models; format: in vivo, mice (BALB/cSlc nu/nu); details: six hours after administration, tumor on Day 8 after transplantation
Method: The present experiment used human stomach cancer cells (MKN-45) expressing carcinoembryonic antigen (CEA). 9-week-old male immunodeficient mice (BALB/cSlc nu/nu) were used. MKN-45 cells (1×10^7/0.1 ml) were transplanted into the mice's subcutis on the right shoulder dorsal side to produce cancer-bearing mouse models. When the tumor volume became a predetermined size (on Day 8 after the transplantation), the Cupid-scFv antibody was administered 100 μmol/0.1 ml via the caudal vein of each mouse. Twenty-four hours after administration of the Cupid-scFv antibody, ^211At-psyche-BR (about 0.30 MBq/100 ml) was administered via the caudal vein of each mouse. […] After that, the weights of blood, plasma, urine, tumor, and normal tissues/organs were measured, and the radioactivity thereof was then measured using a γ counter. The amounts of the ^211At-psyche-BR (radioactivity) accumulated in the blood, plasma, urine, tumor, and normal tissues/organs were calculated. […] Regarding accumulation of the ^211At-psyche-BR in the thyroid gland, since the weight of the thyroid gland could not be precisely measured, it was shown that the rate (% ID) of the ^211At-psyche-BR accumulated in the thyroid gland in the administered ^211At-psyche-BR.

Which “Accumulation in the blood” value ([1]; after 1 minute) does the source give for `N=C1N[C@H]2[C@H](CS[C@H]2CCCCC(=O)NCCCCCC(=O)Nc2cc(NC(=O)CCCCCNC(=O)CCCC[C@@H]3SC[C@@H]4NC(=N)N[C@@H]43)cc(C(=O)NCCOCCOCCNC(=O)c3cccc([211At])c3)c2)N1` [^211At-psyche-B] here?
The value was 10.4±1.1 % ID/g.

And the “Accumulation in the kidney” value ([1]; after 1 minute)?
The value was 61.4±6.5 % ID/g.

And the “Accumulation in the liver” value ([1]; after 1 minute)?
The value was 49.1±6.2 % ID/g.

And the “Accumulation in the tumor” value ([1]; after 1 minute)?
Its value is 0.3±0.05 % ID/g.

What about the “Accumulation in the blood” value ([1]; after 1 hour) of the same compound?
Its value is 3.8±0.3 % ID/g.

What about the “Accumulation in the kidney” value ([1]; after 1 hour) of the same compound?
Its value is 57.2±3.1 % ID/g.

And the “Accumulation in the liver” value ([1]; after 1 hour)?
Its value is 35.3±3.3 % ID/g.

And the “Accumulation in the tumor” value ([1]; after 1 hour)?
The value was 1.0±0.1 % ID/g.

What about the “Accumulation in the blood” value ([1]; after 6 hours) of the same compound?
The value was 0.4±0.1 % ID/g.

What about the “Accumulation in the kidney” value ([1]; after 6 hours) of the same compound?
The value was 17.7±1.9 % ID/g.

And the “Accumulation in the liver” value ([1]; after 6 hours)?
The value was 16.8±0.7 % ID/g.

What about the “Accumulation in the thyroid gland” value ([1]; after 6 hours) of the same compound?
The value was 0.16±0.06 % ID.

What about the “Accumulation in the tumor” value ([1]; after 6 hours) of the same compound?
The value was 1.0±0.1 % ID/g.

What about the “Accumulation in the blood” value ([1]; after 24 hours) of the same compound?
The value was 0.2±0.04 % ID/g.

What about the “Accumulation in the kidney” value ([1]; after 24 hours) of the same compound?
The value was 5.1±0.9%.

And the “Accumulation in the liver” value ([1]; after 24 hours)?
Its value is 9.0±1.4%.

What about the “Accumulation in the tumor” value ([1]; after 24 hours) of the same compound?
Its value is 0.3±0.02%.

Which “Accumulation in the tumor” value [2] does the source give for `N=C1N[C@H]2[C@H](CS[C@H]2CCCCNC(=O)CCCCCC(=O)Nc2cc(NC(=O)CCCCCC(=O)NCCCC[C@@H]3SC[C@@H]4NC(=N)N[C@@H]43)cc(C(=O)NCCOCCOCCNC(=O)c3cccc([211At])c3)c2)N1` [^211At-psyche-BR] here?
The value was 31.0±3.4 % ID/g.
